Results: publication PMC7395062, “Multiparametric assessment of mitochondrial respiratory inhibition in HepG2 and RPTEC/TERT1 cells using a panel of mitochondrial targeting agrochemicals” (Archives of Toxicology, 2020)
Read-outs that look alike come from different tables or passages of the source.

What was measured:
HepG2 cells = assay: Resazurin reduction viability assay, 2D HepG2; type: cell-based, human
Protocol: (§1) The HepG2 cell line, a human hepatocellular carcinoma, was obtained from ATCC (American Type Culture Collection, Wesel, Germany). […] Cells were maintained at 37 °C in a 5% CO2 humidified atmosphere, fed every 2 to 3 days and passaged at approximately 80% confluence. […] For galactose experiments, the medium was refreshed 24 h before exposure with galactose-containing medium. […] Culture medium was refreshed every 3–4 days and the culture was maintained for 21 days prior to dosing.
(§2) The conversion of resazurin to fluorescent resorufin was measured in a plate reader at excitation/emission 540/590 nm.
(§3) All results are average of 2–3 independent experiments.

HepG2 3D spheroids = assay: Cell death assay (PI staining) in 3D cultured HepG2 spheroids; type: cell-based, human; details: 3D HepG2 spheroids
Protocol: as §1
At day 21, the culture medium was replaced by fresh medium containing the compounds in the desired concentration. […] For the repeat exposure scenario, Hoechst was added to the 4th exposure and PI to the 5th exposure. […] The confocal imaging was performed using a Nikon TiE2000 with perfect focus system and XY-stage (Nikon, Amsterdam, The Netherlands). Quantification of the Hoechst and PI signal localization was performed using Nis Elements Analysis software. First, a max projection was created of all z-stacks. The overlapping areas between Hoechst and PI in the projection picture were assessed based on a manually curated intensity threshold. Finally, the fraction of spheroids positive for PI staining was determined.
as §3

RPTEC/TERT1 cells = assay: Resazurin reduction viability assay, RPTEC/TERT1; type: cell-based, human; details: RPTEC/TERT1
Protocol: These cells were obtained under licence from Evercyte GmBH, Vienna Austria. […] For experiments, cells were plated in a required format plate, allowed to become contact-inhibited and fed 24 h prior to treatment exposure. For experiments in galactose condition, cells were fed 24 h prior to experiment with culture medium (custom made DMEM/F12, PromoCell) in which 5 mM glucose was replaced with 5 mM galactose (Merck, G5388).
as §2, §3

[1] = biological target: NADH dehydrogenase (Complex I, CI) (Homo sapiens, UniProt O75251+O75306+P03886)
NADH dehydrogenase (Complex I, CI), sequence (O75251 39-213): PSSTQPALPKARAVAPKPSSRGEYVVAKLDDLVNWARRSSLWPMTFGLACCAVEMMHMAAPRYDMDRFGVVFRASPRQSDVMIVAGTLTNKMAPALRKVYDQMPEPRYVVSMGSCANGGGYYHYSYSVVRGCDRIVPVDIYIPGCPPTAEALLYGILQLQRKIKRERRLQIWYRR
NADH dehydrogenase (Complex I, CI), sequence (P03886 whole entry): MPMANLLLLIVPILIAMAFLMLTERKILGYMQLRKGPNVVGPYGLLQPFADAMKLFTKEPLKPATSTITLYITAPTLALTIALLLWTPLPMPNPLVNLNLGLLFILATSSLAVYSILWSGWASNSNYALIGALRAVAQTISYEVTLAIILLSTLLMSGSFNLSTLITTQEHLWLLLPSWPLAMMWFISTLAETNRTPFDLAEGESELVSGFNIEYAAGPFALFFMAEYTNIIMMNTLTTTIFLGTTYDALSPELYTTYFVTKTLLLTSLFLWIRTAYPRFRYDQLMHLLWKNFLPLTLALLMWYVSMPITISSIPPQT
NADH dehydrogenase (Complex I, CI), sequence (O75306 34-463): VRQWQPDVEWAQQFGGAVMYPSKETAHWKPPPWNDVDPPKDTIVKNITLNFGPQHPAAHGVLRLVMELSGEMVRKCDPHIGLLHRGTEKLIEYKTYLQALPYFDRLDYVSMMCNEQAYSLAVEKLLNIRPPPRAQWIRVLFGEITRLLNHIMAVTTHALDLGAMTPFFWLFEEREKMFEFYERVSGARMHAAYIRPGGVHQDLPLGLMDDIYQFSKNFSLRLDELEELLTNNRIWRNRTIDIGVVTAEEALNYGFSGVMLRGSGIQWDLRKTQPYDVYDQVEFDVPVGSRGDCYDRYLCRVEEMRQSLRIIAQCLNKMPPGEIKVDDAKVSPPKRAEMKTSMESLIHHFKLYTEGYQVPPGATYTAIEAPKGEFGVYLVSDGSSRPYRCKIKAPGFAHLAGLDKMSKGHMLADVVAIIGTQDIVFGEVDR
Protocol: The mitochondrial complex assay uses real-time OCR measurement with sequential addition of specific complex substrates and/or inhibitors to identify the complex within the ETC that is inhibited. […] In the first step, cultured cells are permeabilised and provided with CI substrates. The test compound is injected and OCR is measured. […] OCR is measured for the second time. In the third step, Antimycin A together with ascorbate and tetramethyl phenylenediamine (TMPD) is added to simultaneously block CIII and supply CIV. A third and final OCR measurement is conducted.
The following day, cells were washed once in mitochondrial assay solution (MAS), containing 220 mM mannitol (Sigma, M9647), 70 mM sucrose (Sigma, S7903), 10 mM potassium phosphate (Sigma, P5655), 5 mM magnesium chloride (Sigma, M8266), 3 mM HEPES (Sigma, H0887) and 1 mM EGTA (Sigma, E4378) with 0.2% fatty acid-free BSA (Sigma, A8806). […] Each measurement consisted of a thirty second mix and two-minute read cycle. Compounds were injected sequentially and OCR was measured twice. […] Complex inhibition was determined using the second OCR measurement after compound/vehicle injection, normalised to the baseline OCR measurements prior to compound addition. ETC inhibition is determined in decreased OCR. CI inhibition is confirmed if the inhibited OCR by injection A can be rescued after injection B. CII inhibition is determined if there is no inhibition after A, but inhibition after B. CIII inhibition is determined if there is inhibition after A and B, with recovery after C. OCR inhibition after injection C indicates effects downstream of CIII.
All results are average of 2–3 independent experiments. Each independent experiment is referred to as biological replicate and includes at least two technical replicates. […] Variation in all performed assays was calculated and represented as standard deviation (SD). Curves were fit using the non-liner regression four-parameter Hill model.

[2] = system: CII/CIII (succinate dehydrogenase / cytochrome bc1 complex); type: cell-based, human; details: permeabilised HepG2; sequential substrates/inhibitors
Protocol: The test compound is injected and OCR is measured. […] OCR is measured for the second time. […] A third and final OCR measurement is conducted.
Compounds were injected sequentially and OCR was measured twice. […] ETC inhibition is determined in decreased OCR.
as §3

CCc1nn(C)c(C(=O)NCc2ccc(C(C)(C)C)cc2)c1Cl [Tebufenpyrad]
Statistical significance, Viability Galactose settings Resazurin (HepG2 cells; HepG2, galactose, e = 0.08 µM): * (*p < 0.05 (Tables 3, 4)) | Statistical significance, Viability Galactose settings Resazurin (HepG2 cells; HepG2, galactose, f = 0.4 µM): * (*p < 0.05 (Tables 3, 4)) | Statistical significance, Viability Galactose settings Resazurin (HepG2 cells; HepG2, galactose, g = 7 µM): * (*p < 0.05 (Tables 3, 4)) | Statistical significance, Viability Galactose settings Resazurin (HepG2 cells; HepG2, galactose, h = 10 µM): * (*p < 0.05 (Tables 3, 4)) | Statistical significance, Viability Glucose settings Resazurin (HepG2 cells; HepG2, glucose, h = 10 µM): * (*p < 0.05 (Tables 3, 4)) | Effect of repeated exposure (5 × 24 h vs 1 × 24 h) on toxic sensitivity (HepG2 3D spheroids): increased the toxic sensitivity | Statistical significance, Viability Glucose settings Resazurin (RPTEC/TERT1 cells; g = 7 µM): * (*p < 0.05 (Tables 3, 4)) | Statistical significance, Viability Glucose settings Resazurin (RPTEC/TERT1 cells; h = 10 µM): * (*p < 0.05 (Tables 3, 4))

CC(C)(C)c1ccc(CCOc2ncnc3ccccc23)cc1 [Fenazaquin]
Statistical significance, Viability Galactose settings Resazurin (HepG2 cells; HepG2, galactose, e = 0.08 µM): * (*p < 0.05 (Tables 3, 4)) | Statistical significance, Viability Galactose settings Resazurin (HepG2 cells; HepG2, galactose, f = 0.4 µM): * (*p < 0.05 (Tables 3, 4)) | Statistical significance, Viability Galactose settings Resazurin (HepG2 cells; HepG2, galactose, g = 7 µM): * (*p < 0.05 (Tables 3, 4)) | Statistical significance, Viability Galactose settings Resazurin (HepG2 cells; HepG2, galactose, h = 10 µM): * (*p < 0.05 (Tables 3, 4)) | Statistical significance, Viability Glucose settings Resazurin (RPTEC/TERT1 cells; g = 7 µM): * (*p < 0.05 (Tables 3, 4)) | Statistical significance, Viability Glucose settings Resazurin (RPTEC/TERT1 cells; h = 10 µM): * (*p < 0.05 (Tables 3, 4))

COc1cc2c(cc1OC)[C@@H]1C(=O)c3ccc4c(c3O[C@@H]1CO2)C=CC(C)(C)O4 [Deguelin]
OCR basal - Permeabilised cells Measurement 1 statistical significance [1]: * (*p < 0.05) | Statistical significance, Viability Galactose settings Resazurin (HepG2 cells; HepG2, galactose, f = 0.4 µM): * (*p < 0.05 (Tables 3, 4)) | Statistical significance, Viability Galactose settings Resazurin (HepG2 cells; HepG2, galactose, g = 7 µM): * (*p < 0.05 (Tables 3, 4)) | Statistical significance, Viability Galactose settings Resazurin (HepG2 cells; HepG2, galactose, h = 10 µM): * (*p < 0.05 (Tables 3, 4)) | Statistical significance, Viability Galactose settings Resazurin (RPTEC/TERT1 cells; f = 0.4 µM): * (*p < 0.05 (Tables 3, 4)) | Statistical significance, Viability Galactose settings Resazurin (RPTEC/TERT1 cells; g = 7 µM): * (*p < 0.05 (Tables 3, 4)) | Statistical significance, Viability Galactose settings Resazurin (RPTEC/TERT1 cells; h = 10 µM): * (*p < 0.05 (Tables 3, 4)) | Statistical significance, Viability Glucose settings Resazurin (RPTEC/TERT1 cells; g = 7 µM): * (*p < 0.05 (Tables 3, 4)) | Statistical significance, Viability Glucose settings Resazurin (RPTEC/TERT1 cells; h = 10 µM): * (*p < 0.05 (Tables 3, 4))

CO/C=C(/C(=O)OC)c1ccccc1Oc1cc(Oc2ccccc2C#N)ncn1 [Azoxystrobin]
ETC-complex specificity pattern (CII/CIII) [2]: only partially rescued with ascorbate/TMPD | Statistical significance, Viability Galactose settings Resazurin (HepG2 cells; HepG2, galactose, g = 7 µM): * (*p < 0.05 (Tables 3, 4)) | Statistical significance, Viability Galactose settings Resazurin (HepG2 cells; HepG2, galactose, h = 10 µM): * (*p < 0.05 (Tables 3, 4)) | Statistical significance, Viability Galactose settings Resazurin (RPTEC/TERT1 cells; g = 7 µM): * (*p < 0.05 (Tables 3, 4)) | Statistical significance, Viability Galactose settings Resazurin (RPTEC/TERT1 cells; h = 10 µM): * (*p < 0.05 (Tables 3, 4)) | Statistical significance, Viability Glucose settings Resazurin (RPTEC/TERT1 cells; h = 10 µM): * (*p < 0.05 (Tables 3, 4))

CSC1=N[C@@](C)(c2ccccc2)C(=O)N1Nc1ccccc1 [Fenamidone]
ETC-complex specificity pattern (CII/CIII) [2]: only partially rescued with ascorbate/TMPD | Statistical significance, Viability Galactose settings Resazurin (HepG2 cells; HepG2, galactose, h = 10 µM): * (*p < 0.05 (Tables 3, 4))

CCOCCc1ccc(OCCN=c2[nH]cnc(CC)c2Cl)c(C)c1C [Pyrimidifen]
Statistical significance, Viability Galactose settings Resazurin (HepG2 cells; HepG2, galactose, d = 0.016 µM): * (*p < 0.05 (Tables 3, 4)) | Statistical significance, Viability Galactose settings Resazurin (HepG2 cells; HepG2, galactose, e = 0.08 µM): * (*p < 0.05 (Tables 3, 4)) | Statistical significance, Viability Galactose settings Resazurin (HepG2 cells; HepG2, galactose, f = 0.4 µM): * (*p < 0.05 (Tables 3, 4)) | Statistical significance, Viability Galactose settings Resazurin (HepG2 cells; HepG2, galactose, g = 7 µM): * (*p < 0.05 (Tables 3, 4)) | Statistical significance, Viability Galactose settings Resazurin (HepG2 cells; HepG2, galactose, h = 10 µM): * (*p < 0.05 (Tables 3, 4)) | Statistical significance, Viability Glucose settings Resazurin (RPTEC/TERT1 cells; g = 7 µM): * (*p < 0.05 (Tables 3, 4)) | Statistical significance, Viability Glucose settings Resazurin (RPTEC/TERT1 cells; h = 10 µM): * (*p < 0.05 (Tables 3, 4))

CO/N=C(/C(=O)OC)c1ccccc1COc1ccccc1C [Kresoxim-methyl]
Statistical significance, Viability Galactose settings Resazurin (HepG2 cells): * (key: *p < 0.05 (Tables 3, 4))
